In patent US20130078260A1, “COMPOUNDS TARGETING THE VEGF AND/OR HIF PATHWAY SUCH AS SORAFENIB OR VATALANIB FOR USE IN THE TREATMENT OF OTITIS MEDIA” (MEDICAL RESEARCH COUNCIL, priority 2010, published 2013):
Like-named read-outs stand apart in the source and are kept apart here. Marks after values point to notes of the source that are not given here.

Columns and labels:
[1] = system: Jbo/+ mice; assay: Click-evoked Auditory Brain Stem response (ABR) change in drug-treated Junbo (Jbo/+) mice, chronic otitis media model; type: in vivo, mouse
Description: (§1) Drug treatment, ABR and analysis of inflammation. […] The sham
(§2) Jbo/+ group was matched for age, gender and pre-trial ABR (30-60 dB) and received vehicle alone. A click-evoked ABR (Zheng, Q. Y., et al. (1999) Hearing Res. 130, 94-107) was measured at the beginning and end of the trial (or after 3 wk in the 50 mg/kg PTK787 trial). For ABR with recovery, anesthesia was induced by i.p. injection with a mixture of 10 mg/kg xylazine and 100 mg/kg ketamine and was reversed by 5 mg/kg atipamezole hydrochloride. Histology was assessed at 4 wk in both PTK787 trials.
(§3) Statistics. Student t-tests or Mann Whitney U tests (for ABR measurements where interval data was in 5 dB increments) were performed and test values p<0.05 were considered significant. Percentages were arcsine transformed before using t-tests. In the drug trials, 1-tailed tests were used compare drug and sham-treated groups, otherwise 2-tailed tests were used.

[2] = system: WT mice; assay: Click-evoked ABR change in drug-treated WT littermate mice; type: in vivo, mouse
Description: as §1, §2, §3

[3] = system: Jbo/+ mice middle ear mucosa; assay: Histological analysis of inflammation in middle ear mucosa of drug-treated Jbo/+ mice; type: in vivo, mouse
Description: as §1, §2
Image capture and analysis. Digital images were captured on an Olympus BX51 microscope using ×20, ×40 or ×60 Plan Achromat objectives with neutral density filter, on a ColorView Soft Imaging System software using automatic exposures. In the drug trials, H&E stained sections for image analysis were scanned at ×400 magnification on a Nanozoomer digital pathology system (Hamamatsu Photonics). Eardrum thickness and the thickness of the mucosa along its medial surface (avoiding the cochlea and the region adjacent to the opening of the Eustachian tube) were averaged from 5 measurements. The number of capillaries and lymphatic vessels and their respective diameters were measured in a standardized 1000 μm length of medial mucosa. The treatment and genotype were blinded from the assessor when making the morphological measurements.
as §3

[4] = system: mice; conditions: mouse, in vivo, po
Source text: as §1

[5] = both 50 mg/kg and 75 mg/kg trials, 4 wk, vs sham

CO[C@H]1/C=C\C=C(/C)C(=O)NC2=CC(=O)C(NCCN(C)C)=C(C[C@@H](C)C[C@H](OC)[C@H](O)[C@@H](C)/C=C(\C)[C@@H]1OC(N)=O)C2=O [17-DMAG, 17-dimethylaminoethylamino-17-demethoxy-geldanamycin]
Effect on hearing loss ([1]; Jbo/+ mice, 10 mg/kg, 28 d treatment, vs sham (FIG. 6E)): moderated hearing loss

CNC(=O)c1cc(Oc2ccc(NC(=O)Nc3ccc(Cl)c(C(F)(F)F)c3)cc2)ccn1 [BAY 43-9006]
ΔABR (dB) WT ([2]; 30 mg/kg, 15 days, mean ± SEM (n)): −2.0 ± 1.2 (5) dB
Lymphatic vessel dilation ([3]; 2 wk trial, n=11, sham 14.2±0.9 μm, P=0.0072): 9.9±1.0 μm
ΔABR (dB) Jbo/+ drug ([1]; Jbo/+ mice, 30 mg/kg, 15 days, oral gavage once a day, mean ± SEM (n)): 0.9 ± 1.5 (11)^e dB
Effect on hearing loss ([1]; Jbo/+ mice, treatment for 2 wk, vs sham control): reduced hearing loss
Tolerability / adverse signs ([4]; Junbo (Jbo/+) mutant and WT, 2 wk): not as well tolerated as PTK787
Tolerability / adverse signs [4]: mice suddenly became piloerect

Clc1ccc(Nc2nnc(Cc3ccncc3)c3ccccc23)cc1 [PTK787/ZK 222584]
ΔABR (dB) WT ([2]; 50 mg/kg, 21 days, mean ± SEM (n)): −0.6 ± 1.1 (8) dB
ΔABR (dB) WT ([2]; 75 mg/kg, 28 days, mean ± SEM (n)): 0.0 ± 0.9 (8) dB
Mucosal thickening ([3]; 50 mg/kg trial, 4 wk, vs sham): moderated mucosal thickening
Lymphatic vessel dilation ([3]; 75 mg/kg dosage group, 4 wk, vs sham): moderated
Angiogenesis (blood vessel number in mucosa) [3, 5]: reduced
Lymphatic vessel number [3, 5]: reduced

CN(CCOc1ccc(CC2SC(=O)NC2=O)cc1)c1ccccn1 (stereo not shown) [Rosiglitazone]
ΔABR (dB) WT ([2]; 20 mg/kg, 28 days, mean, SEM (n) printed in the row below): 1.4 dB
ΔABR (dB) Jbo/+ drug ([1]; Jbo/+ mice, 20 mg/kg, 28 days, mean, SEM (n) printed in the row below): 9.7 dB

CCN(CC)CCNC(=O)c1c(C)[nH]c(/C=C2\C(=O)Nc3ccc(F)cc32)c1C [SU-11248]
Effect on hearing loss ([1]; Junbo mice, 28 d treatment, vs sham (FIG. 6B)): moderates hearing loss
